Results taken from the supplement of paper PMC10307832.

Columns and labels:
Assay in all cases: relative viability (nuclei count vs DMSO), 5 days (fraction); higher = more cells survive
Bleomycin + Navitoclax = compound: CC1=C(N=C(N=C1N)[C@H](CC(=O)N)NC[C@@H](C(=O)N)N)C(=O)N[C@@H]([C@H](C2=CN=CN2)OC3C(C(C(C(O3)CO)O)O)OC4C(C(C(C(O4)CO)O)OC(=O)N)O)C(=O)N[C@H](C)[C@H]([C@H](C)C(=O)N[C@@H]([C@@H](C)O)C(=O)NCCC5=NC(=CS5)C6=NC(=CS6)C(=O)NCCC[S+](C)C)O [Bleomycin] + CC1(C)CCC(c2ccc(Cl)cc2)=C(CN2CCN(c3ccc(C(=O)NS(=O)(=O)c4ccc(N[C@H](CCN5CCOCC5)CSc5ccccc5)c(S(=O)(=O)C(F)(F)F)c4)cc3)CC2)C1 [Navitoclax] (partner 0.5 µM); details: main component drawn
Method in brief: (§1)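 Nuclei were stained with Hoechst during a one-step fixation (final 0.05% Triton X-100, 1% formaldehyde, 1 ug/ml Hoechst) carried out 5 days after dosing, then counted on 4× images. The cells, lung cancer lines in 1536-well plates, had been dosed by pin tool the day after seeding with one drug alone or a fixed anchor-drug dose plus five library-drug doses (not always all listed) in √10 steps. Relative viability is the nuclei count in treated wells divided by that in vehicle wells, and each value is the median of duplicate plates.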

Etoposide + Phenformin = compound: COc1cc([C@@H]2c3cc4c(cc3[C@@H](O[C@@H]3O[C@@H]5CO[C@@H](C)O[C@H]5[C@H](O)[C@H]3O)[C@H]3COC(=O)[C@H]23)OCO4)cc(OC)c1O [Etoposide] + N=C(N)NC(=N)NCCc1ccccc1 [Phenformin] (partner 250 µM)
Method in brief: as §1

Bleomycin = compound: CC1=C(N=C(N=C1N)[C@H](CC(=O)N)NC[C@@H](C(=O)N)N)C(=O)N[C@@H]([C@H](C2=CN=CN2)OC3C(C(C(C(O3)CO)O)O)OC4C(C(C(C(O4)CO)O)OC(=O)N)O)C(=O)N[C@H](C)[C@H]([C@H](C)C(=O)N[C@@H]([C@@H](C)O)C(=O)NCCC5=NC(=CS5)C6=NC(=CS6)C(=O)NCCC[S+](C)C)O [Bleomycin]; details: main component drawn
Method in brief: (§2)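 In 1536-well plates, lung cancer cell lines rested overnight at 37 °C before five library-drug doses (not always all listed), √10 apart, were pinned onto vehicle-anchored plates. Nuclei were counted with MetaXpress from 4× Hoechst images taken after 5 days without medium change. Viability compares treated-well with vehicle-well nuclei as a median over plates, and plates needed control CV below 25% plus at least one doubling to pass.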

Etoposide = compound: COc1cc([C@@H]2c3cc4c(cc3[C@@H](O[C@@H]3O[C@@H]5CO[C@@H](C)O[C@H]5[C@H](O)[C@H]3O)[C@H]3COC(=O)[C@H]23)OCO4)cc(OC)c1O [Etoposide]
Method in brief: as §2

Cell Line | relative viability (Bleomycin + Navitoclax; first compound 0.01 µM) | relative viability (Bleomycin + Navitoclax; first compound 0.03162 µM) | relative viability (Bleomycin + Navitoclax; first compound 0.1 µM) | relative viability (Bleomycin + Navitoclax; first compound 0.3162 µM) | relative viability (Bleomycin + Navitoclax; first compound 1 µM) | relative viability (Etoposide + Phenformin; first compound 0.01 µM) | relative viability (Etoposide + Phenformin; first compound 0.03162 µM) | relative viability (Etoposide + Phenformin; first compound 0.1 µM) | relative viability (Etoposide + Phenformin; first compound 0.3162 µM) | relative viability (Etoposide + Phenformin; first compound 1 µM) | relative viability (Bleomycin; 0.01 µM) | relative viability (Bleomycin; 0.03162 µM) | relative viability (Bleomycin; 0.1 µM) | relative viability (Bleomycin; 0.3162 µM) | relative viability (Bleomycin; 1 µM) | relative viability (Etoposide; 0.01 µM) | relative viability (Etoposide; 0.03162 µM) | relative viability (Etoposide; 0.1 µM) | relative viability (Etoposide; 0.3162 µM) | relative viability (Etoposide; 1 µM)
EPLC-272H | 0.793 | 0.888 | 0.826 | 1.29 | 0.159 | 0.281 | 0.308 | 0.267 | 0.263 | 0.226 | 0.811 | 0.882 | 0.434 | 0.132 | 0.151 | 1.05 | 1.09 | 0.658 | 0.815 | 0.513
NCI-H1395 | 0.829 | 0.944 | 0.709 | 0.535 | 0.496 | 0.464 | 0.415 | 0.473 | 0.441 | 0.425 | 0.753 | 0.833 | 0.603 | 0.476 | 0.398 | 0.872 | 0.961 | 0.804 | 0.781 | 0.658
NCI-H2228 | 1.02 | 0.625 | 0.664 | 0.437 | 0.363 | 0.39 | 0.348 | 0.224 | 0.176 | 0.102 | 0.902 | 1.01 | 0.899 | 0.559 | 0.311 | 0.926 | 1.1 | 0.7 | 0.582 | 0.195
LXF-289 | 0.877 | 0.879 | 0.799 | 0.35 | 0.179 | 0.568 | 0.534 | 0.585 | 0.421 | 0.153 | 0.94 | 0.972 | 0.912 | 0.539 | 0.231 | 1.05 | 1.04 | 1.13 | 0.878 | 0.311
NCI-H2009 | 1.16 | 1.18 | 1.09 | 0.858 | 0.532 | 0.492 | 0.505 | 0.492 | 0.416 | 0.342 | 0.953 | 1.02 | 1.01 | 0.659 | 0.566 | 1.02 | 1.03 | 0.938 | 0.765 | 0.42
NCI-H3122 | 1.08 | 1.03 | 0.96 | 0.79 | 0.547 | 0.351 | 0.382 | 0.377 | 0.281 | 0.197 | 1 | 0.993 | 0.928 | 0.528 | 0.358 | 1 | 0.995 | 0.983 | 0.854 | 0.333
NCI-H1755 | 0.932 | 0.933 | 0.945 | 0.724 | 0.394 | 0.63 | 0.671 | 0.597 | 0.589 | 0.495 | 0.94 | 1 | 0.96 | 0.813 | 0.673 | 0.998 | 1.05 | 0.963 | 0.935 | 0.829
HCC-78 | 0.463 | 0.439 | 0.387 | 0.326 | 0.278 | 0.708 | 0.824 | 0.582 | 0.499 | 0.226 | 0.788 | 0.994 | 0.883 | 0.564 | 0.642 | 0.942 | 1.09 | 0.687 | 0.515 | 0.273
LOU-NH91 | 0.553 | 0.437 | 0.362 | 0.266 | 0.199 | 0.692 | 0.756 | 0.692 | 0.653 | 0.404 | 0.838 | 0.689 | 0.614 | 0.448 | 0.339 | 0.978 | 1.01 | 0.853 | 0.826 | 0.486
NCI-H322M | 1.13 | 1.36 | 1.36 | 1.28 | 0.597 | 0.766 | 0.881 | 0.658 | 0.666 | 0.378 | 0.861 | 1.02 | 0.928 | 0.568 | 0.54 | 0.947 | 1.05 | 0.822 | 0.838 | 0.52
HCC-827 | 0.986 | 1.06 | 0.991 | 0.723 | 0.362 | 0.413 | 0.412 | 0.338 | 0.315 | 0.156 | 0.983 | 1.08 | 0.9 | 0.577 | 0.277 | 1.07 | 1.08 | 0.965 | 0.659 | 0.258
SW 1573 | 0.652 | 0.571 | 0.515 | 0.201 | 0.104 | 0.341 | 0.36 | 0.255 | 0.183 | 0.142 | 0.743 | 0.705 | 0.677 | 0.396 | 0.286 | 0.968 | 0.986 | 0.635 | 0.309 | 0.167
NCI-H1975 | 0.872 | 0.878 | 0.584 | 0.28 | 0.222 | 0.398 | 0.486 | 0.382 | 0.293 | 0.17 | 0.746 | 0.714 | 0.589 | 0.289 | 0.226 | 0.842 | 1.07 | 0.817 | 0.809 | 0.402
NCI-H1651 | 0.944 | 0.82 | 0.614 | 0.272 | 0.136 | 0.293 | 0.351 | 0.286 | 0.205 | 0.149 | 0.865 | 0.825 | 0.711 | 0.456 | 0.254 | 0.976 | 0.997 | 0.792 | 0.485 | 0.199
NCI-H460 | 0.343 | 0.465 | 0.0823 | 0.0158 | 0.0206 | 0.476 | 0.492 | 0.352 | 0.0419 | 0.0382 | 0.738 | 0.661 | 0.483 | 0.0877 | 0.0714 | 0.899 | 0.933 | 0.785 | 0.164 | 0.0591
LCLC-97TM1 | 0.191 | 0.197 | 0.102 | 0.152 | 0.1 | 0.454 | 0.487 | 0.439 | 0.328 | 0.184 | 0.394 | 0.525 | 0.258 | 0.16 | 0.0918 | 0.945 | 1.14 | 0.634 | 0.468 | 0.138
NCI-H838 | 0.768 | 0.403 | 0.274 | 0.19 | 0.172 | 0.517 | 0.64 | 0.44 | 0.395 | 0.183 | 0.692 | 0.436 | 0.301 | 0.229 | 0.213 | 0.963 | 1.03 | 0.719 | 0.773 | 0.351
NCI-H1355 | 1.01 | 0.947 | 0.913 | 0.565 | 0.328 | 0.452 | 0.493 | 0.408 | 0.325 | 0.218 | 0.935 | 1.02 | 0.979 | 0.482 | 0.297 | 0.947 | 1.08 | 0.535 | 0.713 | 0.33
HOP-62 | 0.367 | 0.405 | 0.118 | 0.0652 | 0.0435 | 0.71 | 0.795 | 0.578 | 0.475 | 0.276 | 0.47 | 0.473 | 0.257 | 0.183 | 0.107 | 1.06 | 1.11 | 0.824 | 0.712 | 0.372
NCI-H2085 | 0.994 | 1.02 | 0.849 | 0.508 | 0.465 | 0.748 | 0.78 | 0.532 | 0.547 | 0.322 | 0.925 | 0.913 | 0.83 | 0.56 | 0.515 | 0.926 | 1.01 | 0.903 | 0.868 | 0.507
